Results on 19 molecules are retold here after patent US12662491B2 (Redona Therapeutics, Inc., priority 2020, dated 2026).

Structures are written as SMILES. pIC50: −log10 of the molar value.

In this experiment the target is T1, Zcchc11 enzyme (Homo sapiens, UniProt Q5TAX3).
T1 construct: made in house; host or cells: HEK293 cells (Zcchc11); E. coli Rosetta II (LIN28A)
T1 sequence (Q5TAX3 212-1420): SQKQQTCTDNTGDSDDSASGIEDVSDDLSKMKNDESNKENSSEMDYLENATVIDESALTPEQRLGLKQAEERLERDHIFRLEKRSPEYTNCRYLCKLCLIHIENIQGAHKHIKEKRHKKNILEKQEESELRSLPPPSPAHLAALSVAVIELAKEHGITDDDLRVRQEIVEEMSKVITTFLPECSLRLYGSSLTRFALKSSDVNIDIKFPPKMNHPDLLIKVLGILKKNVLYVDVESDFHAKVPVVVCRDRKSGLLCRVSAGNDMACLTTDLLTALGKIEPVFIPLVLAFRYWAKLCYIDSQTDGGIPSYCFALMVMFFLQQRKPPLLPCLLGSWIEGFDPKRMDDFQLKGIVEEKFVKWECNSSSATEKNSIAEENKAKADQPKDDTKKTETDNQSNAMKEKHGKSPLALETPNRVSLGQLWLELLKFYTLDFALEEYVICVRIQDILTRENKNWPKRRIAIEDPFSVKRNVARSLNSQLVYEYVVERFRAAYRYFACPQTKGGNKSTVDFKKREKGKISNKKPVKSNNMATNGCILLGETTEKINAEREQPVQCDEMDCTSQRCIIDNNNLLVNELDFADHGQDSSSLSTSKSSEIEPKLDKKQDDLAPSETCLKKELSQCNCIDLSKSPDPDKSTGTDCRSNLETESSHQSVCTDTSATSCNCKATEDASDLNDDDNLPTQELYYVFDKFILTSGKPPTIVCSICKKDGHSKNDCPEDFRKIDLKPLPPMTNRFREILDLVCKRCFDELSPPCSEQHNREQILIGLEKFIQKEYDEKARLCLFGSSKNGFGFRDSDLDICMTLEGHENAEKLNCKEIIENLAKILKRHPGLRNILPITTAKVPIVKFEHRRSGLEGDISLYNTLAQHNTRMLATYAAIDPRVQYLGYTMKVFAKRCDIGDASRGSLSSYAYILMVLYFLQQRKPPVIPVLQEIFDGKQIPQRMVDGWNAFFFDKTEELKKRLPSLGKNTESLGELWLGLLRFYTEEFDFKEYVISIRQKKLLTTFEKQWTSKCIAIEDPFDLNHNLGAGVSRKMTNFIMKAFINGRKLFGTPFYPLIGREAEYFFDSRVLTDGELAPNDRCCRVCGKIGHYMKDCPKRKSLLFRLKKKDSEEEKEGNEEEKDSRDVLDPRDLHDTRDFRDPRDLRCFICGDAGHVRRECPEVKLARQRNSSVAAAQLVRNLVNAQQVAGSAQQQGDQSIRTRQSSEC
Nature of the experiment: TUTase assay (Zcchc11 assay, Lin28a-dependent polyuridylation of pre-let-7). The class given is biochemical. Conditions: Lin28a-dependent Zcchc11 (Z11) TUTase assay; read-out: Potency Lin28a-dep Z11 IC50. A digest of the protocol:
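Human Zcchc11 residues 212-1420 (HEK293-expressed, MBP tag cleaved, C-terminal FLAG) at 0.2 nM, with 10 nM full-length human LIN28A and 2 nM 5′-fluorescein pre-let-7, preincubated with compound 30 min at room temperature. Reaction started with 5 uM UTP plus 4 nM 3′-rhodamine A20 quench probe; fluorescein loss read kinetically, IC50 from initial rates.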
In the case of `O=C(O)c1cn(-c2cnccn2)c2cc(N3C[C@H](F)C[C@@H]3COc3ncccc3Cl)c(Cl)cc2c1=O` [Example 590, 6-chloro-7-((2R,4R)-2-(((3-chloropyridin-2-yl)oxy)methyl)-4-fluoropyrrolidin-1-yl)-4-oxo-1-(pyrazin-2-yl)-1,4-dihydroquinoline-3-carboxylic acid], the pIC50 is at least 6.00.

With `CN(C)C1CN(c2ccc(-n3cc(C(=O)O)c(=O)c4cc(Cl)c(N5CCC[C@@H]5CCOc5ccccn5)cc43)cn2)C1` [Example 591, (R)-6-chloro-1-(6-(3-(dimethylamino)azetidin-1-yl)pyridin-3-yl)-4-oxo-7-(2-(2-(pyridin-2-yloxy)ethyl)pyrrolidin-1-yl)-1,4-dihydroquinoline-3-carboxylic acid], the negative-log IC50 (pIC50) is at least 6.00.

For `C#Cc1cc2c(=O)c(C(=O)O)cn(-c3ccc(N4CC(N(C)C)C4)nc3)c2cc1N1CCC[C@@H]1COc1ncccc1Cl` [Example 592, (R)-7-(2-(((3-chloropyridin-2-yl)oxy)methyl)pyrrolidin-1-yl)-1-(6-(3-(dimethylamino)azetidin-1-yl)pyridin-3-yl)-6-ethynyl-4-oxo-1,4-dihydroquinoline-3-carboxylic acid], the pIC50 is at least 6.00.

On to `CN(C)C1CN(c2ccc(-n3cc(C(=O)O)c(=O)c4cc(Cl)c(N5CC(c6ccccc6)C[C@@H]5COc5ncccc5Cl)cc43)cn2)C1` (stereo partly drawn) [Example 593, 6-chloro-7-((2R)-2-(((3-chloropyridin-2-yl)oxy)methyl)-4-phenyl-pyrrolidin-1-yl)-1-(6-(3-(dimethylamino)azetidin-1-yl)pyridin-3-yl)-4-oxo-1,4-dihydroquinoline-3-carboxylic acid], for which the negative logarithm of the IC50 (pIC50) was at least 6.00.

In the case of `CN(C)C1CN(c2ccc(-n3cc(C(=O)O)c(=O)c4cc(Cl)c(N5CCC[C@@H]5COC5CCOC5)cc43)cn2)C1` (stereo partly drawn) [Example 594, 6-chloro-1-(6-(3-(dimethylamino)azetidin-1-yl)pyridin-3-yl)-4-oxo-7-((2R)-2-(((tetrahydro-furan-3-yl)oxy)methyl)pyrrolidin-1-yl)-1,4-dihydroquinoline-3-carboxylic acid], the negative logarithm of the IC50 (pIC50) is 5.00 to 6.00.

`CN(C)C1CN(c2ccc(-n3cc(C(=O)O)c(=O)c4cc(Cl)c(N5CCC[C@@H]5COC5CCOCC5)cc43)cn2)C1` [Example 595, (R)-6-chloro-1-(6-(3-(dimethylamino)azetidin-1-yl)pyridin-3-yl)-4-oxo-7-(2-(((tetrahydro-2H-pyran-4-yl)oxy)methyl)pyrrolidin-1-yl)-1,4-dihydroquinoline-3-carboxylic acid]: the pIC50 was 5.00 to 6.00.

As to `CN(C)C1CN(c2ccc(-n3cc(C(=O)O)c(=O)c4cc(Cl)c(N5CCC[C@@H]5CSc5ncccc5Cl)cc43)cn2)C1` [Example 596, (R)-6-chloro-7-(2-(((3-chloropyridin-2-yl)thio)methyl)pyrrolidin-1-yl)-1-(6-(3-(dimethylamino)azetidin-1-yl)pyridin-3-yl)-4-oxo-1,4-dihydroquinoline-3-carboxylic acid], the pIC50 is at least 6.00.

For the molecule `CN(C)C1CN(c2ccc(-n3cc(C(=O)O)c(=O)c4cc(Cl)c(N5Cc6cccnc6[C@@H]5COc5ncccc5Cl)cc43)cn2)C1` [Example 597, (R)-6-chloro-7-(7-(((3-chloropyridin-2-yl)oxy)methyl)-5,7-dihydro-6H-pyrrolo[3,4-b]pyridin-6-yl)-1-(6-(3-(dimethylamino)azetidin-1-yl)pyridin-3-yl)-4-oxo-1,4-dihydroquinoline-3-carboxylic acid], the negative logarithm of the IC50 (pIC50) was at least 6.00.

Turning to `CN(C)C1CN(c2ccc(-n3cc(C(=O)O)c(=O)c4cc(Cl)c(N5C[C@@H](O)C[C@@H]5COc5ncccc5Cl)cc43)cn2)C1` [Example 598, 6-chloro-7-((2R,4S)-2-(((3-chloropyridin-2-yl)oxy)methyl)-4-hydroxypyrrolidin-1-yl)-1-(6-(3-(dimethylamino)azetidin-1-yl)pyridin-3-yl)-4-oxo-1,4-dihydroquinoline-3-carboxylic acid], the negative-log IC50 (pIC50) is at least 6.00.

As for `CN(C)C1CN(c2ccc(-n3cc(C(=O)O)c(=O)c4cc(Cl)c(N5CC(c6cccnc6)C[C@@H]5COc5ncccc5Cl)cc43)cn2)C1` (stereo partly drawn) [Example 599, 6-chloro-7-((2R)-2-(((3-chloropyridin-2-yl)oxy)methyl)-4-(pyridin-3-yl)pyrrolidin-1-yl)-1-(6-(3-(dimethylamino)azetidin-1-yl)pyridin-3-yl)-4-oxo-1,4-dihydroquinoline-3-carboxylic acid], the pIC50 was at least 6.00.

As for `CN(C)C1CN(c2ccc(-n3cc(C(=O)O)c(=O)c4cc(F)c(N5CCC[C@@H]5COc5cc(O)ccn5)c(F)c43)cn2)C1` [Example 600, (R)-1-(6-(3-(dimethylamino)azetidin-1-yl)pyridin-3-yl)-6,8-difluoro-7-(2-(((4-hydroxypyridin-2-yl)oxy)methyl)pyrrolidin-1-yl)-4-oxo-1,4-dihydroquinoline-3-carboxylic acid], the pIC50 is at least 6.00.

`CN(CCN1CCC1)c1ccc(-n2cc(C(=O)O)c(=O)c3cc(Cl)c(N4CCC[C@@H]4COc4ncccc4Cl)cc32)cn1` [Example 601, (R)-1-(6-((2-(azetidin-1-yl)ethyl)(methyl)amino)pyridin-3-yl)-6-chloro-7-(2-(((3-chloropyridin-2-yl)oxy)methyl)pyrrolidin-1-yl)-4-oxo-1,4-dihydroquinoline-3-carboxylic acid]: the negative logarithm of the IC50 (pIC50) was at least 6.00.

Consider `CN(C)C1CN(c2ccc(-n3cc(C(=O)O)c(=O)c4cc(Cl)c(N5C[C@H](O)C[C@@H]5COc5ncccc5Cl)cc43)cn2)C1` [Example 602, 6-chloro-7-((2R,4R)-2-(((3-chloroypridin-2-yl)oxy)methyl)-4-hydroxypyrrolidin-1-yl)-1-(6-(3-(dimethylamino)azetidin-1-yl)pyridin-3-yl)-4-oxo-1,4-dihydroquinoline-3-carboxylic acid], for which the negative-log IC50 (pIC50) is at least 6.00.

As to `COc1ccc(C2C[C@H](COc3ncccc3Cl)N(c3cc4c(cc3Cl)c(=O)c(C(=O)O)cn4-c3ccc(N4CC(N(C)C)C4)nc3)C2)cn1` (stereo partly drawn) [Example 603, 6-chloro-7-((2R)-2-(((3-chloropyridin-2-yl)oxy)methyl)-4-(6-methoxypyridin-3-yl)pyrrolidin-1-yl)-1-(6-(3-(dimethylamino)azetidin-1-yl)pyridin-3-yl)-4-oxo-1,4-dihydroquinoline-3-carboxylic acid], the negative-log IC50 (pIC50) was at least 6.00.

Turning to `O=C(O)c1cn(-c2cc3nc[nH]c3cn2)c2cc(N3CCC[C@@H]3COc3ncccc3Cl)c(Cl)cc2c1=O` [Example 604, (R)-6-chloro-7-(2-(((3-chloropyridin-2-yl)oxy)methyl)pyrrolidin-1-yl)-1-(3H-imidazo[4,5-c]pyridin-6-yl)-4-oxo-1,4-dihydroquinoline-3-carboxylic acid], the pIC50 is at least 6.00.

Regarding `O=C(O)c1cn(-c2ccc(C3COC3)nc2)c2cc(N3CCC[C@@H]3COc3ncccc3Cl)c(Cl)cc2c1=O` [Example 605, (R)-6-chloro-7-(2-(((3-chloropyridin-2-yl)oxy)methyl)pyrrolidin-1-yl)-1-(6-(oxetan-3-yl)pyridin-3-yl)-4-oxo-1,4-dihydroquinoline-3-carboxylic acid], the pIC50 was at least 6.00.

Regarding `O=C(O)c1cn(-c2ccc(C3CNC3)nc2)c2cc(N3CCC[C@@H]3COc3ncccc3Cl)c(Cl)cc2c1=O` [Example 606, (R)-1-(6-(azetidin-3-yl)pyridin-3-yl)-6-chloro-7-(2-(((3-chloropyridin-2-yl)oxy)methyl)pyrrolidin-1-yl)-4-oxo-1,4-dihydroquinoline-3-carboxylic acid], the pIC50 is at least 6.00.

In the case of `O=C(O)c1cn(-c2ccc(C3(O)COC3)nc2)c2cc(N3CCC[C@@H]3COc3ncccc3Cl)c(Cl)cc2c1=O` [Example 607, (R)-6-chloro-7-(2-(((3-chloropyridin-2-yl)oxy)methyl)pyrrolidin-1-yl)-1-(6-(3-hydroxy-oxetan-3-yl)pyridin-3-yl)-4-oxo-1,4-dihydroquinoline-3-carboxylic acid], the pIC50 is at least 6.00.

With `CN(C)C1CN(c2ccc(-n3cc(C(=O)O)c(=O)c4cc(Cl)c(N5CC(c6ccc(O)nc6)C[C@@H]5COc5ncccc5Cl)cc43)cn2)C1` (stereo partly shown) [Example 608], the pIC50 is at least 6.00.
